Measured values published in patent publication US12331093B2, “Fusion polypeptides for metabolic disorders” (BEIJING QL BIOPHARMACEUTICAL CO., LTD., priority 2021, dated 2025).

How the values were obtained:
[1] = molecular target: T1, human beta-Klotho (Homo sapiens, UniProt Q86Z14); test: In vitro FGF21 activity, p-ERK levels in HEK293 cell line overexpressing human beta-Klotho; format: cell-based; conditions: compared with YH-dual
T1 construct: expressed in transfected cells; host or cells: HEK293 cell line
Procedure: The in vitro FGF21 activities of the fusion protein were assessed using a HEK293 cell line overexpressing human beta-Klotho. Tested fusion protein conjugates were measured at 400 nM top concentration with 4-fold serial dilutions in the presence of 1% HSA. After cells were treated with fusion protein conjugates for 12 mins, p-ERK levels were measured by p-ERK kit (Cisbio, 64ERKPEH).
The activity of each fusion protein was represented by EC50, derived from non-linear regression analysis.

[2] = Food intake and body weight reduction in DIO mice; format: in vivo, C57BL/6 mice; conditions: 10 nmol/kg QD
Procedure: 22 week old DIO male C57BL/6 mice (˜50 g) were injected once every other day (Q2D) subcutaneously with designated GLP-1 polypeptide conjugates (i.e., Molecule 012) for 25 days. Food intake and body weight were measured twice a week and fasting blood glucose was measured once a week. Five animals were used for each treatment group. Body weight and fasting blood glucose was monitored for each individual animal, but food intake for each group animals was measured together. Day 1 and Day 25 are first day and last day of molecule dosage. Data are indicated as mean values and standard error (SEM) or pooled values. Statistical analysis was performed by One-way ANOVA. Body weight reduction on Day 25 is calculated by −1*(% BW loss−% BW loss of vehicle group); Cumulative food intake reduction is calculated by −100*(cumulative food intake−cumulative food intake of vehicle)/cumulative food intake of vehicle.

[3] = Metabolic parameters in DIO animal model, 21 days; format: in vivo, C57BL/6 mice; conditions: DIO mice, QD subcutaneously, FIG. 4B
Procedure: 16 week old DIO male C57BL/6 mice (35˜40 g) were injected once daily (QD) subcutaneously with designated GLP-1/FGF21 conjugates (i.e., MLC #9, MLC #14, MLC #16 and MLC #17) for 21 days. Food intake and body weight were measured once everyday and non-fasting blood glucose was measured once every three days. Five animals were used for each treatment group. Body weight and blood glucose was monitored for each individual animal, but food intake for each group of animals was measured together. Day 1 and Day 21 are first day and last day respectively of the treatment. Terminal blood was collected and EDTA-K3 plasma was prepared and frozen at −80° C. for biomarker measurement (LDL-C, TC, TG, ALT, insulin, adiponectin). Liver and adipose tissue were also collected and frozen in liquid nitrogen and store at −80° C. Data are indicated as mean values and standard error (SEM) or pooled values. Statistical analysis was performed by One-way ANOVA. Body weight reduction on Day 21 is calculated by −1*(% BW loss−% BW loss of vehicle group); Cumulative food intake reduction is calculated by −100*(cumulative food intake−cumulative food intake of vehicle)/cumulative food intake of vehicle.

Substance	FGF21 efficacy (FIGS. 2A and 2B) [1]	Body weight reduction (% reduction compared to vehicle) (Day 11) [2]	Cumulative food intake reduction (% reduction compared to vehicle) (Day 11) [2]	non-fasting glucose level [3]
Control#6: GLP1(del7-8, 22E, 36G)-(GAQP)5-ALB8-(GAQP)-FGF21 (121Q, 168L, 171G, 180E), SEQ ID NO: 78, GLP1 dead [reference compound]	significantly higher FGF21 efficacy than YH-dual	24.6%	13.1%	–
Control#2: GLP1(del7-8, 22E, 36G)-(GAQP)5-ALB8-(GAQP)10-FGF21 (121Q, 168L, 171G, 180E), SEQ ID NO: 72, GLP1 dead [reference compound]	–	21.7%	19.1%	–
Semaglutide [reference compound]	–	–	–	7.5 to 10 mmol/L
